Measured values taken from US20090215625A1, “Combinations of Herbicides and Safeners” (priority 2008, published 2009).
Read-outs that look alike come from different tables or passages of the source.

Experiments:
[1] = tested on: bermudagrass turf; experiment: Tembotrione safening with flucarbazone, bermudagrass injury; set-up: species or system Cynodon dacytlon; settings: in vivo
Excerpt: (§1) Treatments were applied with a CO2 pressurized spray system at a volume of 280 L ha^−1. A four nozzle spray boom utilizing 8002 XR flat fan nozzles (Spraying Systems, Inc, Wheaton, Ill.) on 25 cm spacing and a height of 25 cm was utilized. Spray pressure at the nozzle was 22 PSI and ground speed was 5 km/h. All treatments were applied with 0.25% v/v non-ionic surfactant (X-77 Non-Ionic Surfactant; Helena Chemical Company, Memphis, Tenn.).
Tembotrione is a carotenoid biosynthesis inhibiting herbicide that injures bermudagrass. Table 5 refers to research data evaluating the safening of flucarbazone when combined with tembotrione. Tembotrione applied at 0.023 to 0.092 kg/ha injured bermudagrass turf from 30 to 72%; with the greatest injury occurring at 0.092. All tembotrione plus flucarbazone treatments reduced bermudagrass injury when compared to the equivalent rates of tembotrione alone. Tembotrione (at 0.092 kg/ha) plus flucarbazone at 0.015 or 0.029 kg/ha injured bermudagrass 20; however, flucarbazone at 0.059 reduced bermudagrass injury greater to 8%. It is likely that higher rates of flucarbazone will be needed to provide adequate bermudagrass safening as higher rates of tembotrione are applied.

[2] = tested on: St. Augustinegrass; settings: in vivo
[3] = tested on: Lamium amplexicaule; experiment: Broadleaf weed control (JSM 08-5), Lamium amplexicaule; format: in vivo
Excerpt: as §1

[4] = tested on: 'Tifway' bermudagrass; experiment: Run two visual turfgrass injury, bermudagrass (JSM 08-14)
[5] = tested on: Stellaria media; experiment: Broadleaf weed control (JSM 08-5), Stellaria media; format: in vivo
Excerpt: as §1

[6] = tested on: 'Palmetto' St. Augustinegrass; experiment: Run one visual turfgrass injury, St. Augustinegrass (JSM 08-8); settings: Rate 0.25 kg ai/ha
[7] = tested on: large crabgrass; experiment: Large crabgrass control comparison; format: in vivo, Digitaria spp.; settings: 1 to 2 tiller growth stage
[8] = tested on: Geranium carolinianum; experiment: Broadleaf weed control (JSM 08-5), Geranium carolinianum; format: in vivo
Excerpt: as §1

[9] = tested on: St. Augustinegrass turf; experiment: Safening comparison of propoxycarbazone and flucarbazone, St. Augustinegrass injury
[10] = tested on: 'Meyer' zoysiagrass; experiment: Run one visual turfgrass injury, zoysiagrass (JSM08-6); settings: Rate 0.25 kg ai/ha
[11] = tested on: 'Palmetto' St. Augustinegrass; experiment: Run two visual turfgrass injury, St. Augustinegrass (JSM08-14)
[12] = tested on: 'Tifway' bermudagrass; experiment: Run one visual turfgrass injury, bermudagrass (JSM 08-4); settings: Rate 0.25 kg ai/ha
[13] = tested on: 'Meyer' zoysiagrass; experiment: Run two visual turfgrass injury, zoysiagrass (JSM08-15)
[14] = tested on: bermudagrass turf; experiment: Safening comparison of propoxycarbazone and flucarbazone, bermudagrass injury
[15] = tested on: 'Meyer' zoysiagrass; settings: in vivo
[16] = tested on: 'Tifway' bermudagrass; settings: in vivo
[17] = tested on: 'Palmetto' St. Augustinegrass; settings: in vivo

Structure (SMILES): CS(=O)(=O)c1ccc(C(=O)C2C(=O)CCCC2=O)c(Cl)c1COCC(F)(F)F [Tembotrione, 2-{2-chloro-4-mesyl-3-[(2,2,2-trifluoroethoxy)methyl]benzoyl}cyclohexane-1,3-dione]
- Bermudagrass Injury 23 DAT [1]: 0%
- bermudagrass turf injury [1]: 30-72%
- St. Augustinegrass injury [2]: no injury was observed

Structure (SMILES): CS(=O)(=O)c1ccc(C(=O)C2C(=O)CCCC2=O)c([N+](=O)[O-])c1 [Mesotrione, 2-(4-methylsulfonyl-2-nitrobenzoyl)cyclohexane-1,3-dione]
- Weed Control 21 DAT Lamium amplexicaule ([3]; Rate 0.28 kg ai/ha): 100%
- Visual Turfgrass Injury 7 DAT Bermudagrass (JSM 08-14) ([4]; Rate 0.18 kg ai/ha): 32%
- Visual Turfgrass Injury 21 DAT Bermudagrass (JSM 08-14) ([4]; Rate 0.18 kg ai/ha): 23%
- Visual Turfgrass Injury 7 DAT Bermudagrass (JSM 08-14) ([4]; Rate 0.28 kg ai/ha): 35%
- Visual Turfgrass Injury 21 DAT Bermudagrass (JSM 08-14) ([4]; Rate 0.28 kg ai/ha): 27%
- Weed Control 21 DAT Stellaria media ([5]; Rate 0.28 kg ai/ha): 100%
- Visual Turfgrass Injury ~13 DAT St. Augustinegrass (JSM 08-8) [6]: 5%
- Visual Turfgrass Injury ~20 DAT St. Augustinegrass (JSM08-8) [6]: 12%
- Large Crabgrass Control 21 DAT ([7]; Rate 0.175 kg ai/ha): 95%
- Large Crabgrass Control 51 DAT ([7]; Rate 0.175 kg ai/ha): 78%
- Weed Control 21 DAT Geranium carolinianum ([8]; Rate 0.28 kg ai/ha): 20%
- Turfgrass Injury 15 DAT St. Augustinegrass ([9]; Rate 0.42 kg ai/ha): 35%
- Visual Turfgrass Injury ~13 DAT Zoysiagrass (JSM08-6) [10]: 30%
- Visual Turfgrass Injury ~20 DAT Zoysiagrass (JSM08-6) ([10]; rated 22 DAT): 0%
- Visual Turfgrass Injury 7 DAT St. Augustinegrass (JSM08-14) ([11]; Rate 0.18 kg ai/ha): 38%
- Visual Turfgrass Injury 21 DAT St. Augustinegrass (JSM08-14) ([11]; Rate 0.18 kg ai/ha): 32%
- Visual Turfgrass Injury 7 DAT St. Augustinegrass (JSM08-14) ([11]; Rate 0.28 kg ai/ha): 40%
- Visual Turfgrass Injury 21 DAT St. Augustinegrass (JSM08-14) ([11]; Rate 0.28 kg ai/ha): 33%
- Visual Turfgrass Injury ~13 DAT Bermudagrass (JSM 08-4) [12]: 12%
- Visual Turfgrass Injury ~20 DAT Bermudagrass (JSM 08-4) [12]: 7%
- Visual Turfgrass Injury 7 DAT Zoysiagrass (JSM08-15) ([13]; Rate 0.18 kg ai/ha): 18%
- Visual Turfgrass Injury 21 DAT Zoysiagrass (JSM08-15) ([13]; Rate 0.18 kg ai/ha): 20%
- Visual Turfgrass Injury 7 DAT Zoysiagrass (JSM08-15) ([13]; Rate 0.28 kg ai/ha): 22%
- Visual Turfgrass Injury 21 DAT Zoysiagrass (JSM08-15) ([13]; Rate 0.28 kg ai/ha): 23%
- Turfgrass Injury 15 DAT Bermudagrass ([14]; Rate 0.42 kg ai/ha): 28%

Structure (SMILES): CCCOc1nn(C(=O)NS(=O)(=O)c2ccccc2C(=O)OC)c(=O)n1C [Propoxycarbazone, methyl 2-[(4,5-dihydro-4-methyl-5-oxo-3-propoxy-1H-1,2,4-triazole-1-carboxamido)sulfonyl]benzoate]
- Turfgrass Injury 15 DAT St. Augustinegrass ([9]; Rate 0.044 kg ai/ha): 0%
- Turfgrass Injury 15 DAT St. Augustinegrass ([9]; Rate 0.088 kg ai/ha): 0%
- Turfgrass Injury 15 DAT St. Augustinegrass ([9]; Rate 0.177 kg ai/ha): 0%
- Turfgrass Injury 15 DAT Bermudagrass ([14]; Rate 0.044 kg ai/ha): 0%
- Turfgrass Injury 15 DAT Bermudagrass ([14]; Rate 0.088 kg ai/ha): 0%
- Turfgrass Injury 15 DAT Bermudagrass ([14]; Rate 0.177 kg ai/ha): 0%

Structure (SMILES): COc1nn(C(=O)NS(=O)(=O)c2ccccc2OC(F)(F)F)c(=O)n1C [Flucarbazone, 4,5-dihydro-3-methoxy-4-methyl-5-oxo-N-[2-(trifluoromethoxy)phenylsulfonyl]-1H-1,2,4-triazole-1-carboxamide]
- Weed Control 21 DAT Lamium amplexicaule ([3]; Rate 0.007 kg ai/ha): 3%
- Weed Control 21 DAT Lamium amplexicaule ([3]; Rate 0.029 kg ai/ha): 10%
- Weed Control 21 DAT Stellaria media ([5]; Rate 0.007 kg ai/ha): 35%
- Weed Control 21 DAT Stellaria media ([5]; Rate 0.029 kg ai/ha): 62%
- Large Crabgrass Control 21 DAT ([7]; Rate 0.009 kg ai/ha): 17%
- Large Crabgrass Control 51 DAT ([7]; Rate 0.009 kg ai/ha): 0%
- Visual Turfgrass Injury ~13 DAT Zoysiagrass (JSM08-6) [15]: 0%
- Visual Turfgrass Injury ~20 DAT Zoysiagrass (JSM08-6) [15]: 0%
- Weed Control 21 DAT Geranium carolinianum ([8]; Rate 0.007 kg ai/ha): 62%
- Weed Control 21 DAT Geranium carolinianum ([8]; Rate 0.029 kg ai/ha): 55%
- Visual Turfgrass Injury ~13 DAT Bermudagrass (JSM 08-4) [16]: 0%
- Visual Turfgrass Injury ~20 DAT Bermudagrass (JSM 08-4) [16]: 0%
- Visual Turfgrass Injury ~13 DAT St. Augustinegrass (JSM 08-8) [17]: 0%

Structure (SMILES): COc1c(Cl)ccc(Cl)c1C(=O)O [Dicamba]
- Weed Control 21 DAT Lamium amplexicaule ([3]; Rate 0.28 kg ai/ha): 10%
- Weed Control 21 DAT Stellaria media ([5]; Rate 0.28 kg ai/ha): 65%
- Weed Control 21 DAT Geranium carolinianum ([8]; Rate 0.28 kg ai/ha): 73%
